What follows are compounds tested against GST-Xa-hAAK1 (Homo sapiens (Human), UniProt Q2M2I8) (assay: AAK1 Kinase Assay). Conditions: bacterially expressed GST-Xa-hAAK1 3.5 nM; ATP 22 μM; peptide substrate 1.5 μM; 3 hours at room temperature; Caliper LabChip 3000.
GST-Xa-hAAK1, sequence (Q2M2I8 whole entry): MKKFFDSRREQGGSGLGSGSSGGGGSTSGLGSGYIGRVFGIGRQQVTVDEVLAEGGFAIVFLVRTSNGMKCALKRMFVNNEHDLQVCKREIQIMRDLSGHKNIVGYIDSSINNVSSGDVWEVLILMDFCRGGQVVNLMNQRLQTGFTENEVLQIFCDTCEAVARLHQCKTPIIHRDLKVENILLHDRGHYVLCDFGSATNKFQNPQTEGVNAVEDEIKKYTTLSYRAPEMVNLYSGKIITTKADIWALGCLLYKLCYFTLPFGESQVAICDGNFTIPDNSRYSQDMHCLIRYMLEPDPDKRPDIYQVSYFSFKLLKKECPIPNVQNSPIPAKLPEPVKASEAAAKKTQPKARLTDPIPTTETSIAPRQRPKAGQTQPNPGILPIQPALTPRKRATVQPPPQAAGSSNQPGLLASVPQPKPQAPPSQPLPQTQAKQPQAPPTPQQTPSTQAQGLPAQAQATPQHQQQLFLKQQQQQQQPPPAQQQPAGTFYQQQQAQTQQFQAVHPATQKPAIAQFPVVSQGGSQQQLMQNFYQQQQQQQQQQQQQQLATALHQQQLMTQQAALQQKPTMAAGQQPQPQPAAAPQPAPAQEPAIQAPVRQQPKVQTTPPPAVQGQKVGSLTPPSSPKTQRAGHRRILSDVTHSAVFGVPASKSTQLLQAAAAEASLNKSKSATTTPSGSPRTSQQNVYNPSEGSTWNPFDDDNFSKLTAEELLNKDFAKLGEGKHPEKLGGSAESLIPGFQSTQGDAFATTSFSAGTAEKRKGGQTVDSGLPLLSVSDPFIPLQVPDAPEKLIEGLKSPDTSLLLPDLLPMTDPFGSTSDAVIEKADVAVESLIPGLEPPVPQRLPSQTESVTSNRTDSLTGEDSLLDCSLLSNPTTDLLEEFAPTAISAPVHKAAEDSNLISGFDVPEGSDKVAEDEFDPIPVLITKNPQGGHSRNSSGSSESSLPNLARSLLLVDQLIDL
Assay type: biochemical
For `Cc1cc(-c2cc(C(F)(F)F)c(OC[C@](C)(N)CC(C)C)cn2)ccn1` [Example 164, (R)-2,4-dimethyl-1-((2′-methyl-4-(trifluoromethyl)-[2,4′-bipyridin]-5-yl)oxy)pentan-2-amine], the IC50 was 254 nM.
With `COc1cc(-c2ccnc(NC(C)=O)c2)ccc1OC[C@@H](N)CC(C)C` [Example 2, (S)—N-(4-(4-((2-amino-4-methylpentyl)oxy)-3-methoxyphenyl)pyridin-2-yl)acetamide] the IC50 was 3 nM.
In the case of `COC(=O)Nc1cc(-c2ccc(OC[C@](N)(CF)CC(C)C)c(C(F)F)n2)ccn1` [Example 179, (S)-methyl (5-((2-amino-2-(fluoromethyl)-4-methylpentyl)oxy)-6-(difluoromethyl)-[2,4′-bipyridin]-2′-yl)carbamate], the IC50 is reported as 2 nM.
`CC(C)C[C@](C)(N)COc1cnc(-c2ccnc3ccc(F)cc23)cc1C(F)F` [Example 132, (S)-1-((4-(difluoromethyl)-6-(6-fluoroquinolin-4-yl)pyridin-3-yl)oxy)-2,4-dimethylpentan-2-amine] gave an IC50 of 1.5 nM.
`CC(C)C[C@](C)(N)COc1ccc(-c2ccnc3ccncc23)cc1C#N` [Example 86, (S)-2-((2-amino-2,4-dimethylpentyl)oxy)-5-(1,6-naphthyridin-4-yl)benzonitrile] showed an IC50 of 1.2 nM.
`CC(C)C[C@@](C)(N)COc1ncc(-c2ccnc3ccccc23)cc1C(F)F` [Example 246, (R)-1-((3-(difluoromethyl)-5-(quinolin-4-yl)pyridin-2-yl)oxy)-2,4-dimethylpentan-2-amine] showed an IC50 of 26 nM.
With `CC(C)C[C@@](N)(CF)COc1cnc(-c2ccnc(C(F)F)c2)cc1C(F)F` [Example 184, (S)-1-((2′,4-bis(difluoromethyl)-[2,4′-bipyridin]-5-yl)oxy)-2-(fluoromethyl)-4-methylpentan-2-amine] the IC50 was 3.3 nM.
`CC(=O)Nc1cc(-c2ccc(OC[C@@](C)(N)CC(C)C)c(C(F)(F)F)c2)ccn1` [Example 19, (S)—N-(4-(4-((2-amino-2,4-dimethylpentyl)oxy)-3-(trifluoromethyl)phenyl)pyridin-2-yl)acetamide] gave an IC50 of 0.36 nM.
`CC(C)C[C@](C)(N)COc1ccc(-c2ccnc(F)c2F)cc1C(F)(F)F` [Example 42, (S)-1-(4-(2,3-difluoropyridin-4-yl)-2-(trifluoromethyl)phenoxy)-2,4-dimethylpentan-2-amine] gave an IC50 of 3.3 nM.
Work on `Cc1cc(-c2cc(C(F)F)c(OC[C@@](C)(N)CC(C)C)cn2)ccn1` [Example 122, (S)-1-((4-(difluoromethyl)-2′-methyl-[2,4′-bipyridin]-5-yl)oxy)-2,4-dimethylpentan-2-amine] yielded an IC50 of 0.51 nM.
`CC(C)C[C@](C)(N)COc1cnc(-c2ccnc3cc(F)cc(F)c23)cc1C(F)F` [Example 130, (S)-1-((4-(difluoromethyl)-6-(5,7-difluoroquinolin-4-yl)pyridin-3-yl)oxy)-2,4-dimethylpentan-2-amine] was tested, and the IC50 was 1.4 nM.
In the case of `Cc1nc(-c2ccnc3ccc(F)cc23)ccc1OC[C@@](C)(N)CC(C)C` [Example 138, (S)-1-((6-(6-fluoroquinolin-4-yl)-2-methylpyridin-3-yl)oxy)-2,4-dimethylpentan-2-amine], the IC50 is reported as 35 nM.

Source: patent publication US9902722B2, “Biaryl kinase inhibitors” (BRISTOL-MYERS SQUIBB COMPANY, priority 2014, dated 2018)
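Further: each compound tested across an eleven-point concentration series, with IC50 obtained through non-linear regression fitting.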
